Data reported in article PMC9735621, “Synthesis, Biological Evaluation and Computational Studies of New Hydrazide Derivatives Containing 1,3,4-Oxadiazole as Antitubercular Agents” (International Journal of Molecular Sciences, 2022).
Several values for one entry are separate records, joined by “and”; a condition that tells them apart may be missing. Identical values can stand only once. Like-named read-outs stand apart in the source and are kept apart here.

Assays:
[1] = tested on: M. tuberculosis H37Ra; assay: microbe, parasite or virus in culture; format: cell-based, Mycobacterium tuberculosis
[2] = tested on: M. tuberculosis H37Rv; assay: microbe, parasite or virus in culture; format: cell-based; conditions: Mycobacterium tuberculosis
[3] = tested on: SH-SY5Y cells; assay: Cytotoxicity, resazurin cell viability assay; format: cell-based, human; conditions: for Cytotoxicity (in words): SH-SY5Y cells, tested concentrations up to 100 μM; for Viability (%) vs DMSO: SH-SY5Y, 48 h, average ± SEM
Method: (§1) Cell viability was assayed by using Resazurin (SERVA Electrophoresis GmbH, Heidelberg, Germany). This cell-permeable dye is reduced by aerobic respiration of metabolically active cells to resorufin, whose fluorescence is proportional to the number of live cells. The stock solution of resazurin sodium salt (440 μM, 10×) was resuspended in Phosphate Buffered Saline (PBS) and stored at −20 °C. Working solution (44 μM) was prepared on the same day of each assay by diluting resazurin stock solution in a standard culture medium. The human neuroblastoma cell line SH-SY5Y was used to test the cytotoxicity of five selected compounds (1h, and 1k–n). The cells were maintained in Dulbecco’s modified Eagle’s medium (DMEM; Gibco, Life Technologies Inc., Frederick, MD, USA) supplemented with 10% (v/v) fetal bovine serum (FBS) and Antibiotic Antimycotic Solution (100 U penicillin, 100 μg/mL streptomycin and 0.25 μg/mL amphotericin B; Sigma-Aldrich, St. Louis, MO, USA) at 37 °C in a humidified incubator with a 5% CO2/95% air atmosphere.
(§2) In the cytotoxicity tests, SH-SY5Y cells were seeded at a density of 5 × 10^3 cells/well in a 96-well plate and grown for another 24 h. Cells were then treated in triplicate with serial dilutions (100 μM, 50 μM, 25 μM, 12.5 μM, 6.25 μM, 3.125 μM) of selected compounds. After 48 h, the culture medium in each well was replaced with 100 μL of Resazurin working solution (44 μM). The fluorescent signal of the resorufin was monitored with Excitation λ = 530 nm and Emission λ = 590 nm by using an Envision 2104 Multi-label Microplate Reader (Perkin Elmer, Boston, MA, USA). Measurements were performed at time 0 and after 1 h of incubation. The percentage of viability was calculated after subtraction of the background (obtained by killing the cells), on the basis of the ratio between the fluorescence values of the cells incubated with a compound and the fluorescence values of cells incubated with the solvent (1% DMSO). The viability of cells incubated with 1% DMSO was considered to be equivalent to 100%. The statistical analysis was carried out with GraphPad Prism 6 (GraphPad Software, Inc., La Jolla, CA, USA) software using an unpaired t-test, and a p-value < 0.05 was considered statistically significant. Cytotoxicity (CC50) was determined from dose-response curves analyzed by using GraphPad Prism software.

[4] = Cytotoxicity, resazurin cell viability assay; format: cell-based, human; conditions: human, SH-SY5Y neuroblastoma cells; SH-SY5Y cells, 48 h; mean ± SEM
Method: as §1, §2

[5] = Mycobacterium tuberculosis, H37RA

| Structure (SMILES) | MIC [1, 5] | melting point [°C] | MIC [2] [µg/mL] | MIC [1] | MIC ([2]; […], value in brackets) [µM] | Cytotoxicity (in words) [3] | Viability (%) vs DMSO ([3]; 3.125 µM) [%] | Viability (%) vs DMSO ([3]; 6.25 µM) [%] | Viability (%) vs DMSO ([3]; 12.5 µM) [%] | Viability (%) vs DMSO ([3]; 25 µM) [%] | Viability (%) vs DMSO ([3]; 50 µM) [%] | Viability (%) vs DMSO ([3]; 100 µM) [%] | CC50 at 48 h [4] [µM] |
| --- | --- | --- | --- | --- | --- | --- | --- | --- | --- | --- | --- | --- | --- |
| Cc1ccc(C=NNC(=O)c2nnc(-c3ccccc3)o2)cc1 (mixture of isomers) [1j, (E/Z)-N’-(4-methylbenzyliden)-5-phenyl-1,3,4-oxadiazol-2-carbohydrazide] | 16 µg/mL and 52.2 µM | 200 to 202 | > 64 | – | – | – | – | – | – | – | – | – | – |
| O=C(N/N=C\c1ccccc1)c1nnc(-c2ccncc2)o1 [1a, (Z)-N’-benzyliden-5-(pyridin-4-yl)-1,3,4-oxadiazol-2-carbohydrazide] | 64 µg/mL and 218 µM | 207 to 209 | > 64 | – | – | – | – | – | – | – | – | – | – |
| O=C(N/N=C\c1ccc(Cl)cc1)c1nnc(-c2ccncc2)o1 [1b, (Z)-N’-(4-chlorobenzyliden)-5-(pyridin-4-yl)-1,3,4-oxadiazol-2-carbohydrazide] | > 64 µg/mL | – | > 64 | >64 (-) μg/mL | – | – | – | – | – | – | – | – | – |
| Cc1ccc(/C=N\NC(=O)c2nnc(-c3ccncc3)o2)cc1 [1c, (Z)-N’-(4-methylbenzyliden)-5-(pyridin-4-yl)-1,3,4-oxadiazol-2-carbohydrazide] | 64 µg/mL and 195 µM | – | > 64 | – | – | – | – | – | – | – | – | – | – |
| O=C(N/N=C\c1ccc[nH]1)c1nnc(-c2ccncc2)o1 [1d, (Z)-N’-((1H-pyrrol-2-yl)methylen)-5-(pyridin-4-yl)-1,3,4-oxadiazol-2-carbohydrazide] | 64 µg/mL and 226 µM | – | > 64 | – | – | – | – | – | – | – | – | – | – |
| O=C(N/N=C\c1ccccn1)c1nnc(-c2ccncc2)o1 [1e, (Z)-N’-(pyridin-2-ylmethylen)-5-(pyridin-4-yl)-1,3,4-oxadiazol-2-carbohydrazide] | 32 µg/mL and 108 µM | 255 to 259 | 16 | – | 54 | – | – | – | – | – | – | – | – |
| O=C(N/N=C\c1ccncc1)c1nnc(-c2ccncc2)o1 [1f, (Z)-5-(pyridin-4-yl)-N’-(pyridin-4-ylmethylen)-1,3,4-oxadiazol-2-carbohydrazide] | 64 µg/mL and 217 µM | – | > 64 | – | – | – | – | – | – | – | – | – | – |
| O=C(N/N=C\c1ccco1)c1nnc(-c2ccncc2)o1 [1g, (Z)-N’-(furan-2-ylmethylen)-5-(pyridin-4-yl)-1,3,4-oxadiazol-2-carbohydrazide] | 64 µg/mL and 226 µM | 236 to 242 | > 64 | – | – | – | – | – | – | – | – | – | – |
| O=C(N/N=C\c1ccccc1)c1nnc(-c2ccccc2)o1 [1h, (Z)-N’-benzyliden-5-phenyl-1,3,4-oxadiazol-2-carbohydrazide] | 8 µg/mL and 27.4 µM | 194 to 196 | > 64 | – | – | no cytotoxicity at tested concentrations | 100 ± 13 | 99 ± 13 | 99 ± 11 | 99 ± 15 | 100 ± 14 | 97 ± 12 | > 100 |
| O=C(N/N=C\c1ccc(Cl)cc1)c1nnc(-c2ccccc2)o1 [1i, (Z)-N’-(4-chlorobenzyliden)-5-phenyl-1,3,4-oxadiazol-2-carbohydrazide] | 16 µg/mL and 48.9 µM | 243 to 245 | > 64 | – | – | – | – | – | – | – | – | – | – |
| O=C(N/N=C\c1ccc[nH]1)c1nnc(-c2ccccc2)o1 [1k, (Z)-N’-((1H-pyrrol-2-yl)methylen)-5-phenyl-1,3,4-oxadiazol-2-carbohydrazide] | 8 µg/mL and 28.3 µM | 185 to 187 | 8 | – | 28.3 | – | 100 ± 13 | 100 ± 13 | 101 ± 14 | 81 ± 12 | 49 ± 7 | 37 ± 6 | 50 ± 6 |
| O=C(N/N=C\c1ccccn1)c1nnc(-c2ccccc2)o1 [1l, (Z)-5-phenyl-N’-(pyridin-2-ylmethylen)-1,3,4-oxadiazol-2-carbohydrazide] | 8 µg/mL and 27.4 µM | 242 to 243 | 8 | – | 27.1 | – | 100 ± 12 | 100 ± 12 | 98 ± 13 | 93 ± 13 | 70 ± 10 | 49 ± 7 | 100 ± 12 |
| O=C(N/N=C\c1ccncc1)c1nnc(-c2ccccc2)o1 [1m, (Z)-5-phenyl-N’-(pyridin-4-ylmethylen)-1,3,4-oxadiazol-2-carbohydrazide] | 8 µg/mL and 27.4 µM | 243 to 245 | > 64 | – | – | – | 100 ± 14 | 100 ± 14 | 98 ± 16 | 96 ± 14 | 87 ± 11 | 61 ± 9 | 128 ± 16 |
| O=C(N/N=C\c1ccco1)c1nnc(-c2ccccc2)o1 [1n, (Z)-N’-(furan-2-ylmethylen)-5-phenyl-1,3,4-oxadiazol-2-carbohydrazide] | 8 µg/mL and 28.3 µM | 221 to 223 | 16 | – | 56.6 | no cytotoxicity at tested concentrations | 100 ± 11 | 100 ± 11 | 99 ± 15 | 100 ± 12 | 100 ± 13 | 97 ± 11 | > 100 |
| NNC(=O)c1ccncc1 [INH, Isoniazid, reference compound] | 0.25 µg/mL and 1.8 µM | – | 0.25 | – | 1.8 | – | – | – | – | – | – | – | – |
| CO[C@H]1/C=C/O[C@@]2(C)Oc3c(C)c(O)c4c(O)c(c(/C=N/N5CCN(C)CC5)c(O)c4c3C2=O)NC(=O)/C(C)=C\C=C\[C@H](C)[C@H](O)[C@@H](C)[C@@H](O)[C@@H](C)[C@H](OC(C)=O)[C@@H]1C [RIF, reference compound] | – | – | 0.5 | – | 0.6 | – | – | – | – | – | – | – | – |
